The values that follow are results of earlier work, collected in US20230271770A1, “Anti-Viral Pharmaceutical Formulations Administered Via Devices for Lung Targeted Delivery” (priority 2020, published 2023).

The conditions of the series: human, in vivo, po; cited from earlier work.

Take `CCN(CCO)CCCC(C)Nc1ccnc2cc(Cl)ccc12` (stereo not drawn) [HCQ, hydroxychloroquine]: the BA is given as 74%, the “share of tablet dose distributed to red blood cells or other protein in blood” value was “approximately 0.25%” and the “share of tablet dose not absorbed or initially metabolized in liver” value is “approximately 26%”.
